Test results taken from patent US5563130A, “Methods for inhibiting angiogenesis, proliferation of endothelial or tumor cells and tumor growth” (American Cyanamid Company, priority 1994, dated 1996).

Legend:
Assay type in all cases: cell-based
Human Tumor Cell lines = test: Antiproliferative activity in panel of human tumor cell lines; details: for AVERAGE IC50 FOR TUMOR CELL LINES: average over the tested human tumor cell lines
Description: (§1) PROTOCOL 1, 2, and 3 are described in greater detail hereinbelow. In general, according to PROTOCOLS 1 and 2, the target ABAE and/or Human Tumor cells are exposed to the compound of Formula I for 48 hours. PROTOCOL 3 exposes ABAE cell to the compound for 4 days. A detailed description of the protocol is as follows:
(§2) Antiproliferative Activity in Human Tumor and Adult Bovine Aortic Endothelial (ABAE) Cell Lines
(§3) The antiproliferative activity of the compounds of Formula I of the present invention is evaluated in a panel comprised of human tumor cell lines and an adult bovine aortic endothelial cell line (ABAE). The human tumor cell lines are from:
(§4) 2) Colon tumors: MIP, CaCo2, and SW620.
(§5) All cell lines are maintained in log phase in RPMI 1640 media, supplemented with 5% fetal calf serum, penicillin/streptomycin and 2 mM L-glutamine. Cultures are renewed after 20 passages with cells from a fresh stock of batch-frozen early passage cells. Cell lines are routinely checked for mycoplasma contamination (Genprobe). In a laminar flow hood, cells (1-5×10^4) are plated into 96-well microtiter plates in a volume of 0.1 ml/well with a bulk microtiter dispenser (Denley). […] At this concentration, dimethylsulfoxide has no effect on cell growth. Compounds are added using a Tomtec dispenser which simultaneously dispenses from one 96-well plate, containing the drug dilutions, to the plates containing the cells. After two days of continuous drug exposure, 50% cold trichloroacetic acid (TCA) is added to 10% final concentration to fix the cells, and after 60 minutes at 4° C., the TCA is aspirated and the plates are washed 5 times with deionized water using a microtiter plate washer. The number of cells on the plate are quantitated using a protein dye-binding assay (Monks et al., 1991). A 0.4% solution of the dye, sulforhodamine B, in glacial acetic acid is added to the plates, and the plates are washed 5 times with 1% glacial acetic acid using the automatic plate washed. The bound stain is solubilized with 0.1 ml of 10 mM Tris base. The optical densities are read from an automatic spectrophotometric plate reader (Dynatech) directly to a main frame computer (VAX 8600).
(§6) Positive controls, that include standard chemotherapeutic drugs (i.e., adriamycin, cisplatin, etc.), are included in every experiment.
(§7) Background optical density measurements (complete media-cells, and complete media+drug-cells) are automatically subtracted from the appropriate control and test wells. Mean values and standard errors are determined from duplicate wells. A measure is also made of the optical density at time when the drugs are added. The number of cells after treatment (P), as % of control, is calculated for every concentration of drug, as follows: [formula] wherein: T is optical density measurement for treated cells after 48 hours;
(§8) C is optical density measurement for untreated cells after 48 hours;
(§9) Co is optical density measurement for cells at the time of drug addition.
(§10) IC50 of growth inhibition is calculated from the sets of P values using the RS-1 data package (BBN Software).
(§11) The antiproliferative activity of the compounds of Formula I is evaluated in a panel comprised of human tumor cell lines and an adult bovine aortic endothelial cell line (ABAE) as listed in PROTOCOL 1. This assay is a modification of PROTOCOL 1. The modifications include:
(§12) 1) each concentration for each compound is tested in a single well;
(§13) 2) compounds are tested at 20, 4, 0.8, 0.16 microgram/ml and additionally in some experiments at 100 and 0.32 microgram/ml;
(§14) 3) samples are pipetted into a 96-well plate for each of the cell lines by a Beckman Biomek 1000 SL robot;
(§15) 4) after fixing with TCA each well is washed with 0.35 ml distilled water twice, not five times;
(§16) 5) after staining with sulforhodamine B each well is washed 3 times, not five times; […]

A2780/DDP = test: Antiproliferative activity in human ovarian tumor cell line A2780/DDP; details: PROTOCOL 1 and PROTOCOL 2
Description: as §1, §2, §3, §5, §6, §7, §8, §9, §10, §11, §12, §13, §14, §15, §16

SW620 = test: Antiproliferative activity in human colon tumor cell line SW620; details: PROTOCOL 1 and PROTOCOL 2
Description: as §1, §2, §3, §4, §5, §6, §7, §8, §9, §10, §11, §12, §13, §14, §15, §16

[1] = system: Adult Bovine Aortic Endothelial (ABAE) cell line; test: Antiproliferative activity in ABAE cells, PROTOCOL 1 (48 h, SRB)
Description: PROTOCOL 1, 2, and 3 are described in greater detail hereinbelow. In general, according to PROTOCOLS 1 and 2, the target ABAE and/or Human Tumor cells are exposed to the compound of Formula I for 48 hours. PROTOCOL 3 exposes ABAE cell to the compound for 4 days. A detailed description of the protocol is as follows: Antiproliferative Activity in Human Tumor and Adult Bovine Aortic Endothelial (ABAE) Cell Lines The antiproliferative activity of the compounds of Formula I of the present invention is evaluated in a panel comprised of human tumor cell lines and an adult bovine aortic endothelial cell line (ABAE). […] The number of cells on the plate are quantitated using a protein dye-binding assay (Monks et al., 1991). […] The optical densities are read from an automatic spectrophotometric plate reader (Dynatech) directly to a main frame computer (VAX 8600). […] Mean values and standard errors are determined from duplicate wells. […] The number of cells after treatment (P), as % of control, is calculated for every concentration of drug, as follows: [formula] wherein: T is optical density measurement for treated cells after 48 hours; C is optical density measurement for untreated cells after 48 hours; Co is optical density measurement for cells at the time of drug addition. IC50 of growth inhibition is calculated from the sets of P values using the RS-1 data package (BBN Software). […]

A2780S = test: Antiproliferative activity in human ovarian tumor cell line A2780S; details: PROTOCOL 1 and PROTOCOL 2
Description: as §1, §2, §3, §5, §6, §7, §8, §9, §10, §11, §12, §13, §14, §15, §16

MIP = test: Antiproliferative activity in human colon tumor cell line MIP; details: PROTOCOL 1 and PROTOCOL 2
Description: as §1, §2, §3, §4, §5, §6, §7, §8, §9, §10, §11, §12, §13, §14, §15, §16

HTB 16 = test: Antiproliferative activity in human tumor cell line HTB 16; details: ovarian tumor line; PROTOCOL 1 and PROTOCOL 2
Description: as §1, §2, §3, §5, §6, §7, §8, §9, §10, §11, §12, §13, §14, §15, §16

[2] = system: Adult Bovine Aortic Endothelial (ABAE) cell line; test: Antiproliferative activity in ABAE cells, PROTOCOL 3 (4 days, cell count); details: PROTOCOL 3, FIG. 1
Description: as §1
Antiproliferative Activity in Adult Bovine Aortic Endothelial (ABAE) Cell Line
ABAE cells are grown in DMEM media (Mediatech, Washington, D.C.) supplemented with 10% calf serum (Hyclone). ABAE cells are plated in 24-well dishes at 8,000 cells/well, followed by the addition of increasing concentrations of 7-[substituted amino]-9-[(substituted glycyl)amido]-6-demethyl-6-deoxytetracyclines. After four days, the cells are detached and counted. […] The growth inhibition (I) as % of control is calculated as follows: [formula] wherein: Nc is the number of cells in untreated wells;
Nt is the number of cells in treated wells;
No is the number of plated cells.
IC50 of growth inhibition is determined from the sets of I values plotted by Kaleidograph software (Abelbeck Software).
In addition FIG. 1, presents the dose response curve of the compound of Example 6 for the above ABAE cell line obtained by PROTOCOL 3.

[3] = system: Adult Bovine Aortic Endothelial (ABAE) cell line; test: Antiproliferative activity in ABAE cells, PROTOCOL 2 (48 h, SRB, single well)
Description: as §1, §2, §11, §12, §13, §14, §15
5) after staining with sulforhodamine B each well is washed 3 times, not five times;
6) the growth inhibition (I) as % of control, is calculated using the RS-1 data package (BBN Software), for every concentration of drug, as follows: [formula] wherein: T is optical density measurement for treated cells after 48 hours;
as §8
7) IC50 of growth inhibition is determined from graphically from dose response curves, as is known in the art.
Table 1 presents the results depicting the antiproliferative activity of the compounds of Formula I against an Adult Bovine Aortic Endothelial (ABAE) cell line, as evaluated by PROTOCOL 1 and PROTOCOL 2. The results are presented in terms of IC50 and are as follows.

CACO2 = test: Antiproliferative activity in human colon tumor cell line CACO2; details: PROTOCOL 1 and PROTOCOL 2
Description: as §1, §2, §3, §4
All cell lines are maintained in log phase in RPMI 1640 media, supplemented with 5% fetal calf serum, penicillin/streptomycin and 2 mM L-glutamine. […] The number of cells on the plate are quantitated using a protein dye-binding assay (Monks et al., 1991). […] The optical densities are read from an automatic spectrophotometric plate reader (Dynatech) directly to a main frame computer (VAX 8600). […]
Background optical density measurements (complete media-cells, and complete media+drug-cells) are automatically subtracted from the appropriate control and test wells. Mean values and standard errors are determined from duplicate wells. […]

Structure (SMILES): CCCNCC(=O)Nc1ccc2c(c1O)C(=O)C1=C(O)[C@]3(O)C(=O)C(C(N)=O)=C(O)[C@@H](N(C)C)C3CC1C2.Cl.Cl (stereo partly shown) [Example 4]
- AVERAGE IC50 FOR TUMOR CELL LINES (Human Tumor Cell lines): 2.85 µg/mL
- A2780/DDP IC50 (A2780/DDP): 3.1 µg/mL
- SW620 IC50 (SW620): 1.3 µg/mL
- IC50 PROTOCOL 1 [1]: 5.2 µg/mL
- A2780S IC50 (A2780S): 3.2 µg/mL
- MIP IC50 (MIP): 3.4 µg/mL
- HTB 16 IC50 (HTB 16): 3.2 µg/mL

Structure (SMILES): CCCCNCC(=O)Nc1ccc2c(c1O)C(=O)C1=C(O)[C@]3(O)C(=O)C(C(N)=O)=C(O)[C@@H](N(C)C)C3CC1C2.Cl (stereo partly drawn) [Example 6, [4S-(4alpha,12aalpha)]-9-[[(Butylamino)acetyl]amino]-4-(dimethylamino)-1,4,4a,5,5a,6,11,12a-octahydro-3,10,12,12a-tetrahydroxy-1,11-dioxo-2-naphthacenecarboxamide monohydrochloride]
- AVERAGE IC50 FOR TUMOR CELL LINES (Human Tumor Cell lines): 3.2 µg/mL
- A2780/DDP IC50 (A2780/DDP): 3.3 µg/mL
- SW620 IC50 (SW620): 3.2 µg/mL
- inhibits 50% of cell growth [2]: approximately 3 μg/ml
- A2780S IC50 (A2780S): 3.4 µg/mL
- MIP IC50 (MIP): 3.4 µg/mL
- IC50 PROTOCOL 2 ([3]; ABAE cells, 48 h, PROTOCOL 2): 4 µg/mL
- activity in preventing proliferation of ABAE cells compared to Minocycline ([3]; Table 1): extraordinary activity in preventing the proliferation of ABAE cells as compared to the prior art compound, Minocycline
- HTB 16 IC50 (HTB 16): 2.9 µg/mL

Structure (SMILES): C=CCN(CC=C)CC(=O)Nc1ccc2c(c1O)C(=O)C1=C(O)[C@]3(O)C(=O)C(C(N)=O)=C(O)[C@@H](N(C)C)C3CC1C2.Cl.Cl (stereo partly shown) [Example 2]
- CACO2 IC50 (CACO2): 4.0 µg/mL
- inhibition of cell growth at the highest concentrations (Human Tumor Cell lines; FIG. 2, 6 human tumor cell lines, highest concentrations): < 100%
- AVERAGE IC50 FOR TUMOR CELL LINES (Human Tumor Cell lines): 2.75 µg/mL
- Dead floating cells (Human Tumor Cell lines; even at the highest concentration): not observed
- A2780/DDP IC50 (A2780/DDP): 4.0 µg/mL
- SW620 IC50 (SW620): 1.5 µg/mL
- A2780S IC50 (A2780S): 1.5 µg/mL
- MIP IC50 (MIP): 4.0 µg/mL
- HTB 16 IC50 (HTB 16): 1.5 µg/mL
